Experimental findings from the supplement of paper PMC10307832 are described below.

Common to all, as to test: relative viability (nuclei count vs DMSO), 5 days (fraction); higher = more cells survive
Compound in the experiment “RU-SKI 43 + Trametinib”: CC[C@@H](C)CNCC(=O)N1CCC2=C([C@@H]1COC3=CC=CC(=C3)C)C=CS2 [RU-SKI 43] + CC(=O)Nc1cccc(-n2c(=O)n(C3CC3)c(=O)c3c(Nc4ccc(I)cc4F)n(C)c(=O)c(C)c32)c1 [Trametinib] (partner 0.02 µM)
In outline: (§1)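 The day after seeding in 1536-well plates, lung cancer cell lines were treated by pin tool with a single drug, or with a fixed anchor-drug dose together with five library-drug doses (not always all listed) in √10 steps. After 5 days, a combined fix-and-stain solution (final 0.05% Triton X-100, 1% formaldehyde, 1 ug/ml Hoechst) was added. Nuclei counted on 4× images gave relative viability as treated counts over vehicle counts, reported as the median of duplicate plates.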

Compound in the experiment “MK-8033 + Olaparib”: Cn1cc(-c2cnc3ccc4ccc(CS(=O)(=O)NCc5ccccn5)cc4c(=O)c3c2)cn1 [MK-8033] + O=C(c1cc(Cc2n[nH]c(=O)c3ccccc23)ccc1F)N1CCN(C(=O)C2CC2)CC1 [Olaparib] (partner 8 µM)
In outline:
as §1

Compound in the experiment “Irinotecan + Trametinib”: CCc1c2c(nc3ccc(OC(=O)N4CCC(N5CCCCC5)CC4)cc13)-c1cc3c(c(=O)n1C2)COC(=O)[C@]3(O)CC [Irinotecan] + CC(=O)Nc1cccc(-n2c(=O)n(C3CC3)c(=O)c3c(Nc4ccc(I)cc4F)n(C)c(=O)c(C)c32)c1 [Trametinib] (partner 0.02 µM)
In outline:
as §1

Compound in the experiment “MK-8033 + AZD7762”: Cn1cc(-c2cnc3ccc4ccc(CS(=O)(=O)NCc5ccccn5)cc4c(=O)c3c2)cn1 [MK-8033] + NC(=O)Nc1cc(-c2cccc(F)c2)sc1C(=O)N[C@H]1CCCNC1 [AZD7762] (partner 0.2 µM)
In outline:
as §1

In the case of PC-14, the relative viability in the experiment with RU-SKI 43 + Trametinib (first compound 0.1 µM) stood at 0.637; with RU-SKI 43 + Trametinib (first compound 0.3162 µM), 0.824; with RU-SKI 43 + Trametinib (first compound 1 µM) it was 0.82; with RU-SKI 43 + Trametinib (first compound 3.162 µM), 0.652; with RU-SKI 43 + Trametinib (first compound 10 µM) it was 0.533; in the experiment with MK-8033 + Olaparib (first compound 0.02 µM), 0.249. In addition, the relative viability was 0.27 with MK-8033 + Olaparib (first compound 0.06325 µM); 0.299 with MK-8033 + Olaparib (first compound 0.2 µM); 0.321 in the experiment with MK-8033 + Olaparib (first compound 0.6325 µM); 0.271 with MK-8033 + Olaparib (first compound 2 µM); 0.744 with Irinotecan + Trametinib (first compound 0.6325 µM); 0.436 with Irinotecan + Trametinib (first compound 2 µM). In addition, the relative viability with Irinotecan + Trametinib (first compound 6.325 µM) was found to be 0.164; with Irinotecan + Trametinib (first compound 20 µM), 0.137; with MK-8033 + AZD7762 (first compound 0.02 µM) it was 0.357; with MK-8033 + AZD7762 (first compound 0.06325 µM), 0.296; with MK-8033 + AZD7762 (first compound 0.2 µM), 0.351; in the experiment with MK-8033 + AZD7762 (first compound 0.6325 µM), 0.302. Also, in the experiment with MK-8033 + AZD7762 (first compound 2 µM), the relative viability turned out to be 0.354.

On to RERF-LC-KJ, for which the relative viability in the experiment with RU-SKI 43 + Trametinib (first compound 0.1 µM) stood at 0.846; with RU-SKI 43 + Trametinib (first compound 0.3162 µM), 0.84; with RU-SKI 43 + Trametinib (first compound 1 µM), 0.914; with RU-SKI 43 + Trametinib (first compound 3.162 µM) it was 0.85; in the experiment with RU-SKI 43 + Trametinib (first compound 10 µM), 0.768; with MK-8033 + Olaparib (first compound 0.02 µM), 1.03. Besides, the relative viability with MK-8033 + Olaparib (first compound 0.06325 µM) was 0.973; with MK-8033 + Olaparib (first compound 0.2 µM), 0.884; with MK-8033 + Olaparib (first compound 0.6325 µM), 0.899; with MK-8033 + Olaparib (first compound 2 µM) it was 0.882; with Irinotecan + Trametinib (first compound 0.6325 µM), 0.869; with Irinotecan + Trametinib (first compound 2 µM), 0.63. Also, the relative viability in the experiment with Irinotecan + Trametinib (first compound 6.325 µM) is 0.433; in the experiment with Irinotecan + Trametinib (first compound 20 µM) it was 0.282; with MK-8033 + AZD7762 (first compound 0.02 µM) it was 0.984; with MK-8033 + AZD7762 (first compound 0.06325 µM), 0.84; with MK-8033 + AZD7762 (first compound 0.2 µM), 1.01; in the experiment with MK-8033 + AZD7762 (first compound 0.6325 µM), 0.981. Further, in the experiment with MK-8033 + AZD7762 (first compound 2 µM), the relative viability was 0.942.

SW 900: the relative viability with RU-SKI 43 + Trametinib (first compound 0.1 µM) was determined as 0.818; in the experiment with RU-SKI 43 + Trametinib (first compound 0.3162 µM) it was 0.76; in the experiment with RU-SKI 43 + Trametinib (first compound 1 µM) it was 1.03; in the experiment with RU-SKI 43 + Trametinib (first compound 3.162 µM), 1.02; in the experiment with RU-SKI 43 + Trametinib (first compound 10 µM), 0.594; with MK-8033 + Olaparib (first compound 0.02 µM) it was 0.851. In addition, the relative viability with MK-8033 + Olaparib (first compound 0.06325 µM) was 0.876; with MK-8033 + Olaparib (first compound 0.2 µM), 0.852; in the experiment with MK-8033 + Olaparib (first compound 0.6325 µM), 0.788; with MK-8033 + Olaparib (first compound 2 µM), 0.812; in the experiment with Irinotecan + Trametinib (first compound 2 µM) it was 0.522; with Irinotecan + Trametinib (first compound 6.325 µM) it was 0.275. The relative viability in the experiment with Irinotecan + Trametinib (first compound 20 µM) was 0.284; in the experiment with MK-8033 + AZD7762 (first compound 0.02 µM), 0.575; with MK-8033 + AZD7762 (first compound 0.06325 µM), 0.487; with MK-8033 + AZD7762 (first compound 0.2 µM) it was 0.564; with MK-8033 + AZD7762 (first compound 0.6325 µM), 0.621; in the experiment with MK-8033 + AZD7762 (first compound 2 µM), 0.498.
